Series [1] in a line: Rat hemoglobin repletion method: iron bioavailability of iron phosphate alone or with Na2EDTA versus FeSO4 in rat diet/Corn Flakes. As to conditions: rats; for Percent Absorption Relative to FeSO4: calculated from the slopes; for Slope: hemoglobin gain versus diet iron concentration, common intercept, letters mark estimates that do not differ (P < .10). It is filed as in vivo, Sprague Dawley rats. The procedure: An additional study was performed to determine the bioavailability of iron phosphate when combined with Na2EDTA. The relative iron bioavailability of the various iron containing compositions in a ready-to-eat cereal product was assayed using a widely accepted method, commonly referred to as the rat hemoglobin repletion method, (modified AOAC method for assessment of relative iron bioavailability), see Williams, S. ed. Official methods of analysis of the Association of Official Analytical Chemists, 14th ed. Arlington, Va. AOAC, 1984; Fritz, J. C. et al., Collaborative Study of rat hemoglobin repletion test for bioavailability of iron, AOAC 1974, 57:513-517. Relative bioavailability of the various iron:EDTA composition was carried out in a series of separate experiments. In each of these experiments, ferrous sulfate was used as the standard or control compound.
Sprague Dawley rats, individually housed in temperature and light controlled units, were fed an iron deficient diet obtained from Harland Tekland Laboratories for 24 days. After this iron depletion phase, the rats were weighed and blood was drawn to test for baseline hemoglobin concentrations. These anemic animals, with hemoglobin levels between […], were then randomly assigned to the control and test groups. Ferrous sulfate, iron phosphate, and iron phosphate with Na2EDTA were separately added to the test diets to achieve concentrations of 6 and 18 and 24 mg iron/kg diet. These diets were then fed to groups of ten animals, ad libitum, for 14 days. Iron levels in the diets, were verified by atomic absorption spectrometry (Blin et al., J. Assoc. Off. Anal. Chem. 1977, 60:1170-1174). After the 14-day test period, hemoglobin concentrations were determined for all animals.
The iron bioavailability of each iron source, assayed relative to ferrous sulfate, was calculated using the slope ratio procedure by comparing the gain in hemoglobin concentration with the iron concentration in the diet (Finney, D. J., Statistical methods in biological assay.2nd ed. 1964; Amine et L., Biological assessment of available iron in food products, J. Agric. Food Chem. 1974, 22:470-476). […] The percent absorption relative to FeSO4 was calculated from the slopes determined from each experiment.
An additional test was conducted feeding rats a purified rat diet/Corn Flakes® fortified with iron phosphate either alone or in combination with Na2EDTA or mixtures of both. […] As described above the bioavailability was determined by assaying the relative change in hemoglobin in rats fed with the various fortified diets with the recommended daily allowance for humans of iron content (RDA).
Three test diets were evaluated: […]

The nature of series [2]: Iron absorption from fortified corn flakes with milk in women, from radioactivity in circulating erythrocytes. It is filed as in vivo. As to conditions: 30 g corn flakes with 150 ml milk, percent iron absorbed normalized by reference dose of ferrous ascorbate. The procedure:
An experiment was conducted to validate the effectiveness of combining reduced iron with a non-ferric EDTA salt. Six sources of iron were compared in a study conducted on women.
The study was performed using a serving of corn flakes, approximately 30 g, with the addition of 150 ml lactose free UHT-treated 2% fat cow's milk. The percentage of iron absorbed by the test subjects was determined from radioactivity present in the circulating erythrocytes. Labeled ^59FeCl3 was used as a tracer in the reference dose of ferrous ascorbate and in the treatments containing FeSO4. Labeled ^55FeCl3 was used as a tracer in the treatments containing elemental reduced iron. The percentage of iron absorbed by the test subjects was normalized by the reference dose of ferrous ascorbate.

This is an account of results in patent US20020012721A1, “Cooked cereal ingredient-containing products fortified with non-ferric edta and insoluble iron compositions and methods for use” (priority 1998, published 2002).

In the case of `O=S(=O)([O-])[O-].[Fe+2]` [(a) FeSO4, FeSO4], in series [1], the “Percent Absorption Relative to FeSO4” value is 100% and the Slope is reported as 0.30 (c). Moreover, in series [2] (25% Daily Value iron), the “Normalized Absorption” value amounted to 11.4%.
For the compound `O=P([O-])([O-])[O-].[Fe+3]` [B) FePO4, FePO4], in series [1], the “Percent Absorption Relative to FeSO4” value is reported as 33% and the Slope is 0.10 (a).
For the compound `O=S(=O)([O-])[O-].[Fe+2]` [(b) FeSO4, FeSO4], in series [2] (50% Daily Value iron), the “Normalized Absorption” value came to 6.9%.
